According to the Kinase Knowledgebase extract (Sharma et al. 2016):

Tests used:
Assay in all cases: Enzyme Assay
PIK3CA (human) = PIK3CA (human) (UniProt P42336)
PIK3CB (Human) = PIK3CB (Human) (UniProt P42338)
PIK3CD (Human) = PIK3CD (Human) (UniProt O00329)
Sequence of PIK3CD (Human) (O00329 whole entry, looked up): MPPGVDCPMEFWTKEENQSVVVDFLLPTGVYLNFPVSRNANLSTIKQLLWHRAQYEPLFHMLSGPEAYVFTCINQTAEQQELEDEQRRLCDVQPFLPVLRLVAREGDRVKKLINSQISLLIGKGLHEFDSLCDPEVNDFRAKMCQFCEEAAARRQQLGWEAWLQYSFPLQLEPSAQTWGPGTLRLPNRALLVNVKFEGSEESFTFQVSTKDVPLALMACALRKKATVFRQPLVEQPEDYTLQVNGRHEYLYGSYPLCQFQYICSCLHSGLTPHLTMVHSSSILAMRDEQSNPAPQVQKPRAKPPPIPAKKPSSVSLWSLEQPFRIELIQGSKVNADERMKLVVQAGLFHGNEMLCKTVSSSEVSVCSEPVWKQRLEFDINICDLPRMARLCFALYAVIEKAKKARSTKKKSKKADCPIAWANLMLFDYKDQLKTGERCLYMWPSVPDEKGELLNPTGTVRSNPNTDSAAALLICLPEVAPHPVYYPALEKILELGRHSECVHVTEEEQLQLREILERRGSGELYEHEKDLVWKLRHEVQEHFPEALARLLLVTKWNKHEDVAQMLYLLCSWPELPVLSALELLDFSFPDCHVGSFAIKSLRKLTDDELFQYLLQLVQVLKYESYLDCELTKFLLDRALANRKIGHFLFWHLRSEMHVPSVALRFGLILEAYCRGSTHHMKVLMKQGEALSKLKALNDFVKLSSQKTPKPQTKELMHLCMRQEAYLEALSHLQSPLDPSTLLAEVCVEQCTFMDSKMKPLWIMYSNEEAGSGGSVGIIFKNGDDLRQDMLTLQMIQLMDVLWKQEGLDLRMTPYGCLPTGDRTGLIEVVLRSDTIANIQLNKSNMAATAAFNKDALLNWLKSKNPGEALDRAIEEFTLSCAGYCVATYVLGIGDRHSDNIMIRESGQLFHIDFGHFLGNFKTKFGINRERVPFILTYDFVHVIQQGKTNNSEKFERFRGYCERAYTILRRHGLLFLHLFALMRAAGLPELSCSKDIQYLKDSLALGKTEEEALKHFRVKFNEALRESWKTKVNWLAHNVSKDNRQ

Sequence of PIK3CB (Human) (P42338 whole entry, looked up): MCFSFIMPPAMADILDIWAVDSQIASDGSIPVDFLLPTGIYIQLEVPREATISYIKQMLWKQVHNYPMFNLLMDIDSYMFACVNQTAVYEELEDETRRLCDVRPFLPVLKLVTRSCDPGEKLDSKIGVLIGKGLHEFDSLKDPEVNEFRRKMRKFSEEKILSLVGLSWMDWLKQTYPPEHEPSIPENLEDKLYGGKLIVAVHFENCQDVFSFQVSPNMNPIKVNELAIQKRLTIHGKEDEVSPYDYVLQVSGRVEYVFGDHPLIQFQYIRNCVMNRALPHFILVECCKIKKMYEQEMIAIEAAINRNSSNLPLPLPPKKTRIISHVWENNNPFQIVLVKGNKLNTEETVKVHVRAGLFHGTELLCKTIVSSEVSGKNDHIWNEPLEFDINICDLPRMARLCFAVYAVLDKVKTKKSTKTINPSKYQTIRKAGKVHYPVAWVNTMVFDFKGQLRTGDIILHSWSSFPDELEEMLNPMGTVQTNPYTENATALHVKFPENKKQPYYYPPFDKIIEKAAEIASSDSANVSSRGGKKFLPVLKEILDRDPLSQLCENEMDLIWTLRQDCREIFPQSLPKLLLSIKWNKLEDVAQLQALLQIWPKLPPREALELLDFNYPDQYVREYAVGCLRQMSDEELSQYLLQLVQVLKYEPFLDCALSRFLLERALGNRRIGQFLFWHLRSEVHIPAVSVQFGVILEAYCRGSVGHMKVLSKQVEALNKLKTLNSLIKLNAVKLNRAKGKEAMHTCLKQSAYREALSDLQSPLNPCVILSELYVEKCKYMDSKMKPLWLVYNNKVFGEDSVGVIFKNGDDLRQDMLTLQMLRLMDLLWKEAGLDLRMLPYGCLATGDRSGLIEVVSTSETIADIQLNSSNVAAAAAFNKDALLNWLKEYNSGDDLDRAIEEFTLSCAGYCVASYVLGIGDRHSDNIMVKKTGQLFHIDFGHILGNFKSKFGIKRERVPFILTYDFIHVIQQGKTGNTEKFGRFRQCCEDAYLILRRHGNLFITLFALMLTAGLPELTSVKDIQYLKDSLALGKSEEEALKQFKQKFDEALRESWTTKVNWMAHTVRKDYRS
Sequence of PIK3CA (human) (P42336 whole entry, looked up): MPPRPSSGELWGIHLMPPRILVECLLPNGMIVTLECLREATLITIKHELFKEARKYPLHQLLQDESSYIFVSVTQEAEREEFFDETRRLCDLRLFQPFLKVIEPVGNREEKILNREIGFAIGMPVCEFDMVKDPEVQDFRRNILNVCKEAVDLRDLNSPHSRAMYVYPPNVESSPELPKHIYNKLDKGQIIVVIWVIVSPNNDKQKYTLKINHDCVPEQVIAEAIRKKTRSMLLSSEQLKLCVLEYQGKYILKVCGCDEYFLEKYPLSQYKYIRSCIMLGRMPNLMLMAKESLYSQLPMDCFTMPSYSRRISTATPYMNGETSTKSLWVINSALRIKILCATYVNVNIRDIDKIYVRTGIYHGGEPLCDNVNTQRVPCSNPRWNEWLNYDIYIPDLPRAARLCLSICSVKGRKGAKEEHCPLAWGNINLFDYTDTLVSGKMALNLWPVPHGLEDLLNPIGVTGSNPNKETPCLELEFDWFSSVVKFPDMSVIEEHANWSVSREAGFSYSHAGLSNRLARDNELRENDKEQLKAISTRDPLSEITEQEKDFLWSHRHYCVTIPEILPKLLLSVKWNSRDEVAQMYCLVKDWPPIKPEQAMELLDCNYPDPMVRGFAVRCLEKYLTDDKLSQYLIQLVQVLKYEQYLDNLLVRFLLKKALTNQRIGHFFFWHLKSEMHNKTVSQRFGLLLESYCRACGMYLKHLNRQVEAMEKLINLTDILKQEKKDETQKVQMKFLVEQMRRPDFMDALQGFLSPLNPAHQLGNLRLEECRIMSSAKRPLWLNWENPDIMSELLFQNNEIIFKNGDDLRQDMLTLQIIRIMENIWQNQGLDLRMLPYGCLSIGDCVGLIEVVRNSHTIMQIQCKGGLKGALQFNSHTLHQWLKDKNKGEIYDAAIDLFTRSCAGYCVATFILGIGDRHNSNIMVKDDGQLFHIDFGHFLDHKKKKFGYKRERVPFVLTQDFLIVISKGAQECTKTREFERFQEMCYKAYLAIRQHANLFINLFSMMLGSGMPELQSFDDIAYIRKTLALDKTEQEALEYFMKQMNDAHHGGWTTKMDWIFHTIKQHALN

| Compound | IC50 (PIK3CA (human)) | IC50 (PIK3CB (Human)) | IC50 (PIK3CD (Human)) |
| --- | --- | --- | --- |
| Cc1cccc2cc([C@H](C)Nc3ncnc4[nH]cc(Br)c34)n(C3CC3)c(=O)c12 | 0.1 to 1 µM | < 0.1 µM | < 0.1 µM |
| CCC(Nc1ncnc2[nH]cnc12)c1cc2ccccc2c(=O)n1-c1ccccc1 (configuration not stated) | > 10 µM | > 10 µM | < 0.1 µM |
| Cc1cccc2cc(Cn3nc(Cl)c4c(N)ncnc43)n(-c3ccccc3F)c(=O)c12 | > 10 µM | > 10 µM | 0.1 to 1 µM |
| Cc1cccc2cc(Cn3nc(C#C[C@@H](C)O)c4c(N)ncnc43)n(-c3ccccc3O)c(=O)c12 | > 10 µM | > 10 µM | – |
| CCN(Cc1cc2cccc(C)c2c(=O)n1-c1ccccc1C)c1ncnc2[nH]cnc12 | > 10 µM | > 10 µM | – |
| Cc1cccc2cc(Cn3nc(I)c4c(N)ncnc43)n(C)c(=O)c12 | > 10 µM | > 10 µM | 0.1 to 1 µM |
| Cc1cccc2cc(Cn3nc(I)c4c(N)ncnc43)n(C3CCC3)c(=O)c12 | > 10 µM | > 10 µM | – |
| Cc1ccccc1-n1c(Cn2nc(-c3ccc(O)cc3)c3c(N)ncnc32)cc2cccc(C)c2c1=O | > 10 µM | > 10 µM | 0.1 to 1 µM |
| Cc1cccc2cc(Cn3nc(I)c4c(N)ncnc43)n(-c3ccccc3O)c(=O)c12 | > 10 µM | > 10 µM | – |
| Cc1cccnc1-n1c(Cn2nc(-c3ccc(F)c(O)c3)c3c(N)ncnc32)cc2cccc(C)c2c1=O | > 10 µM | > 10 µM | – |
| Cc1cccc2cc([C@H](C)Nc3ncnc4[nH]nc(C(N)=O)c34)n(-c3ccccc3)c(=O)c12 | – | < 0.1 µM | < 0.1 µM |
| Cc1cccc2cc(Cn3nc(C(C)C)c4c(N)ncnc43)n(-c3ccccc3)c(=O)c12 | > 10 µM | > 10 µM | – |
| Cc1cccc2cc([C@H](C)Nc3ncnc4[nH]cc(C(N)=O)c34)n(C3CC3)c(=O)c12 | 0.1 to 1 µM | < 0.1 µM | < 0.1 µM |
| Cc1ccccc1-n1c(Cn2nc(C#C[C@@H](C)O)c3c(N)ncnc32)cc2cccc(C)c2c1=O | > 10 µM | > 10 µM | – |
| Cc1cccc2cc([C@H](C)Nc3ncc(C(F)(F)F)c(N)n3)n(-c3ccccc3)c(=O)c12 | > 10 µM | > 10 µM | – |
| Cc1cccc2cc(Cn3nc(-c4cccc(O)c4)c4c(N)ncnc43)n(C3CC3)c(=O)c12 | 0.1 to 1 µM | 0.1 to 1 µM | – |

| Compound | IC50 (PIK3CA (human)) | IC50 (PIK3CB (Human)) | IC50 (PIK3CD (Human)) |
| --- | --- | --- | --- |
| Cc1cccc2cc(Cn3nc(-c4ccc(Cl)c(O)c4)c4c(N)ncnc43)n(-c3ccccc3F)c(=O)c12 | > 10 µM | > 10 µM | – |
| Cc1ccccc1-n1c(Cn2nc(CCC(=O)N3CCOCC3)c3c(N)ncnc32)cc2cccc(C)c2c1=O | > 10 µM | > 10 µM | – |
| Cc1cccc2cc(Cn3nc(-c4cn[nH]c4)c4c(N)ncnc43)n(-c3ccccc3C(C)C)c(=O)c12 | – | 0.1 to 1 µM | – |
| Cc1ccccc1-n1c(Cn2nc(C#N)c3c(N)ncnc32)cc2cccc(C)c2c1=O | > 10 µM | > 10 µM | – |
| Cc1cccc2cc(Cn3nc(-c4cccc(O)c4)c4c(N)ncnc43)n(-c3ccccc3C(C)C)c(=O)c12 | > 10 µM | 0.1 to 1 µM | – |
| Cc1cccc2cc([C@H](C)Nc3ncnc4[nH]cc(F)c34)n(-c3ccccc3)c(=O)c12 | – | < 0.1 µM | < 0.1 µM |
| Cc1cccc2cc(Cn3nc(I)c4c(N)ncnc43)n(C(C)C)c(=O)c12 | > 10 µM | > 10 µM | – |
| CC(=O)Nc1nc2ccc(-c3nn(Cc4cc5cccc(C)c5c(=O)n4-c4ccccc4)c4ncnc(N)c34)cc2[nH]1 | > 10 µM | > 10 µM | – |
| Cc1cccc2cc(Cn3nc(-c4cccc(F)c4)c4c(N)ncnc43)n(-c3ccccc3F)c(=O)c12 | > 10 µM | > 10 µM | – |
| CCc1ccccc1-n1c(Cn2nc(-c3cc(O)cc(F)c3)c3c(N)ncnc32)cc2cccc(C)c2c1=O | – | 0.1 to 1 µM | – |
| Cc1ccccc1-n1c(Cn2nc(-c3cccc(O)c3)c3c(N)ncnc32)cc2cccc(F)c2c1=O | > 10 µM | > 10 µM | – |
| CC(=O)Nc1nc2cc(-c3nn(Cc4cc5cccc(C)c5c(=O)n4-c4ccccc4)c4ncnc(N)c34)ccc2o1 | – | < 0.1 µM | < 0.1 µM |
| Cc1ccccc1-n1c(Cn2nc(-c3ccc(Cl)c(O)c3)c3c(N)ncnc32)cc2ccccc2c1=O | > 10 µM | > 10 µM | – |
| Cc1ccccc1-n1c(Cn2nc(-c3ccc(F)c(O)c3)c3c(N)ncnc32)cc2ccccc2c1=O | > 10 µM | > 10 µM | – |
| Cc1cccc2cc(Cn3nc(-c4ccc(F)c(O)c4)c4c(N)ncnc43)n(C3CCCC3)c(=O)c12 | > 10 µM | > 10 µM | – |
| Cc1cccc2cc(Cn3nc(-c4cnn(C)c4)c4c(N)ncnc43)n(-c3ccccc3F)c(=O)c12 | > 10 µM | > 10 µM | – |

Second part, the compound after the results:

| IC50 (PIK3CA (human)) | IC50 (PIK3CB (Human)) | IC50 (PIK3CD (Human)) | Compound |
| --- | --- | --- | --- |
| > 10 µM | > 10 µM | 0.1 to 1 µM | Cc1ccccc1-n1c(Cn2nc(I)c3c(N)ncnc32)cc2cccc(F)c2c1=O |
| – | 0.1 to 1 µM | – | CCn1c(Cn2nc(-c3ccc4nc(NC(C)=O)sc4c3)c3c(N)ncnc32)cc2cccc(C)c2c1=O |
| > 10 µM | > 10 µM | 0.1 to 1 µM | Cc1cccc2cc(Cn3nc(Br)c4c(N)ncnc43)n(-c3ccccc3F)c(=O)c12 |
| > 10 µM | > 10 µM | – | CCc1ccccc1-n1c(Cn2nc(-c3cccc(O)c3)c3c(N)ncnc32)cc2cccc(C)c2c1=O |
| > 10 µM | > 10 µM | > 10 µM | Cc1cccc2cc(C(C)Nc3nc(Cl)ncc3N)n(-c3ccccc3)c(=O)c12 (configuration not stated) |
| – | 0.1 to 1 µM | – | CC(=O)Nc1nc2ccc(-c3nn(Cc4cc5cccc(C)c5c(=O)n4C4CCC4)c4ncnc(N)c34)cc2s1 |
| – | < 0.1 µM | < 0.1 µM | Cc1cccc2cc([C@H](C)Nc3ncnc4[nH]nc(C(N)=O)c34)n(C3CC3)c(=O)c12 |
| > 10 µM | > 10 µM | 0.1 to 1 µM | Cc1cccc2cc(Cn3nc(-c4ccn[nH]4)c4c(N)ncnc43)n(-c3ccccc3F)c(=O)c12 |
| > 10 µM | > 10 µM | – | Cc1cccc2cc(Cn3nc(-c4cccc(O)c4)c4c(N)ncnc43)n(-c3ccccc3)c(=O)c12 |
| – | 0.1 to 1 µM | – | CC(=O)Nc1nc2ccc(-c3nn(Cc4cc5cccc(C)c5c(=O)n4C)c4ncnc(N)c34)cc2s1 |
| 0.1 to 1 µM | < 0.1 µM | < 0.1 µM | Cc1cccc2cc([C@H](C)Nc3ncnc4[nH]cnc34)n(-c3ccc(F)cc3)c(=O)c12 |
| < 0.1 µM | 0.1 to 1 µM | < 0.1 µM | Cc1cccc2cc(Cn3nc(-c4ccc5oc(N)nc5c4)c4c(N)ncnc43)n(C3CC3)c(=O)c12 |
| – | > 10 µM | < 0.1 µM | Cc1cccc2cc(Cn3nc(CF)c4c(N)ncnc43)n(-c3ccccc3)c(=O)c12 |
| – | 0.1 to 1 µM | – | Cc1ccccc1-n1c(Cn2nc(-c3ccc4nc(N)ncc4c3)c3c(N)ncnc32)cc2cccc(C)c2c1=O |
| – | 0.1 to 1 µM | < 0.1 µM | Cc1cccc2cc(C(C)Nc3ncnc4[nH]cnc34)n(-c3ccc(F)cc3)c(=O)c12 (configuration not stated) |
| > 10 µM | > 10 µM | > 10 µM | Cc1cccc2cc([C@H](C)Nc3nc(N)ncc3C(N)=O)n(C3CC3)c(=O)c12 |
| > 10 µM | > 10 µM | 0.1 to 1 µM | Cc1cccc2cc([C@H](C)Nc3cc(N)nc(Cl)n3)n(-c3ccccc3)c(=O)c12 |
| > 10 µM | > 10 µM | > 10 µM | Cc1cccc2cc(C(C)Nc3nc(O)ncc3N)n(-c3ccccc3)c(=O)c12 (configuration not stated) |
| > 10 µM | > 10 µM | – | Cc1cccc2cc([C@H](C)Nc3cc(N)nc(N)n3)n(C3CC3)c(=O)c12 |
| – | > 10 µM | – | CCC(Nc1ncnc2[nH]cnc12)c1cc2cccc(C)c2c(=O)n1-c1c(F)cccc1F (configuration not stated) |

| IC50 (PIK3CA (human)) | IC50 (PIK3CB (Human)) | IC50 (PIK3CD (Human)) | Compound |
| --- | --- | --- | --- |
| – | 0.1 to 1 µM | < 0.1 µM | Cc1cccc2cc(C(C)Nc3ncnc4[nH]cnc34)n(C3CC3)c(=O)c12 (configuration not stated) |
| > 10 µM | > 10 µM | – | Cc1ccccc1-n1c(Cn2nc(CN3CCOCC3)c3c(N)ncnc32)cc2cccc(C)c2c1=O |
| – | > 10 µM | – | Cc1ccccc1-n1c(Cn2nc(-c3ccc4ncnc(N)c4c3)c3c(N)ncnc32)cc2cccc(C)c2c1=O |
| – | > 10 µM | < 0.1 µM | Cc1ccccc1-n1c(Cn2nc(CF)c3c(N)ncnc32)cc2cccc(C)c2c1=O |
| – | 0.1 to 1 µM | – | Cc1cccc2cc(Cn3nc(-c4cc(O)cc(F)c4)c4c(N)ncnc43)n(-c3ccccc3O)c(=O)c12 |
| – | > 10 µM | < 0.1 µM | Cc1ccccc1-n1c(Cn2nc(CC#N)c3c(N)ncnc32)cc2cccc(C)c2c1=O |
| – | 0.1 to 1 µM | – | Cc1cccc2cc(Cn3nc(-c4cc(O)cc(F)c4)c4c(N)ncnc43)n(-c3ccccc3Cl)c(=O)c12 |
| > 10 µM | > 10 µM | – | Cc1ccccc1-n1c(CN(C)c2ncnc3[nH]cnc23)cc2cccc(C)c2c1=O |
| > 10 µM | > 10 µM | – | Cc1cccc2cc(Cn3nc(C#C[C@@H](C)O)c4c(N)ncnc43)n(C3CCCCC3)c(=O)c12 |
| > 10 µM | > 10 µM | – | Cc1ccccc1-n1c(Cn2nc(-c3ccc(F)c(O)c3)c3c(N)ncnc32)cc2cccc(F)c2c1=O |
| – | < 0.1 µM | < 0.1 µM | Cc1cccc2cc([C@H](C)Nc3ncnc4[nH]ccc34)n(C3CC3)c(=O)c12 |
| – | 0.1 to 1 µM | < 0.1 µM | CC(=O)Nc1nc2cc(-c3nn(Cc4cc5cccc(C)c5c(=O)n4-c4ccccc4C)c4ncnc(N)c34)ccc2o1 |
| > 10 µM | > 10 µM | – | Cc1cccc2cc(Cn3nc(C#N)c4c(N)ncnc43)n(-c3ccccc3F)c(=O)c12 |
| 0.1 to 1 µM | 0.1 to 1 µM | – | Cc1cccc2cc(Cn3nc(-c4cc(O)cc(F)c4)c4c(N)ncnc43)n(-c3ccccc3C(C)C)c(=O)c12 |
| > 10 µM | 0.1 to 1 µM | – | Cc1cccc2cc(Cn3nc(-c4cccc(O)c4)c4c(N)ncnc43)n(C(C)C)c(=O)c12 |
| > 10 µM | – | 0.1 to 1 µM | Cc1cccc2cc(Cn3nc(-c4ccc5nc(N)cn5c4)c4c(N)ncnc43)n(-c3ccccc3)c(=O)c12 |
| > 10 µM | – | < 0.1 µM | Cc1cccc2cc([C@H](C)Nc3ncnc4[nH]nc(Cl)c34)n(-c3ccccc3)c(=O)c12 |
| – | < 0.1 µM | < 0.1 µM | Cc1cccc2cc([C@H](C)Nc3ncnc4[nH]cnc34)n(C3CC3)c(=O)c12 |
| – | < 0.1 µM | < 0.1 µM | Cc1cccc2cc([C@H](C)Nc3ncnc4[nH]nc(C#N)c34)n(-c3ccccc3)c(=O)c12 |
